From a melting point compilation (Tetko et al.; mined from patent text by program, amines drawn as free bases though some values may be those of a salt)

| SMILES | melting point [°C] |
| --- | --- |
| NC(=O)c1c(Cl)c(Cl)c(Cl)c(Cl)c1Cl | 268 to 270 |
| N[C@H]1C=C(C(=O)O)OC1 | 193 to 195 |
| COCCN(CCOC)c1ccccc1NC(N)=S | 118 to 119 |
| NC(Cc1c[nH]c2c(F)cccc12)C(=O)O (centres undefined) | 256 to 261 |
| FC(F)(F)c1cccc(CSc2nnc(-c3ccc4ncsc4c3)o2)c1 | 112 to 113 |
| COc1cc2ncnc(N3CCN(C(=O)Nc4cc(Cl)nc(Cl)c4)CC3)c2cc1OC | 267 to 270 |
| COc1ccc2[nH]c(C=Cc3ccc(OC)c(OC)c3)nc2c1 | 246 to 249 |
| O=C1c2c(cc(O)c(Cl)c2Cl)CC1C1CCCC1 (centres undefined) | 222 to 225 |
| CSC1C(=O)Nc2c(OCc3ccccc3)cccc21 (centres undefined) | 127 to 129 |
| CNc1nc(N)nc(-c2cc(Cl)ccc2Cl)n1 | 205 to 206 |
| BrCCCCCc1nnnn1C1CCCCC1 | 57 to 59 |
| CCCCCCCCCCOc1cc(N=Nc2ccccc2)ccc1OCC1CC1 | 58 to 60 |
| CCOC(=O)C(C)=NNc1ccc(Cl)cc1Cl | 118 to 120 |
| Cn1c(C(=O)N[C@H]2CCCC[C@H]2C(=O)N[C@H](C#N)C2CC2)cc2ccccc21 | 242 to 246 |
| COc1cc(Oc2ccc(C(=O)N(C3CCCCC3)C3CCCC3)cc2)cc(OC)c1OC | 166 |
| CCOC(=O)c1cc(O)n(C)n1 | 151 to 153 |
| CC(O)C#Cc1cc(C(C)Nc2nc(N)nc(C(C)(C)F)n2)ccc1F (centres undefined) | 119 to 122 |
| CCN(CC)C(=O)c1ccc(C(=C2CCN(Cc3ccccc3)CC2)c2cccc(OC)c2)cc1 | 100 to 110 |
| Nc1ccc2cccc(Nc3cc(-c4ccc(C(F)(F)F)cc4)ncn3)c2n1 | 211 to 213 |
| CC#Cc1ccccc1S(N)(=O)=O | 147 to 149 |
| CO/C(=C\C=C\c1cc2cc(Cl)c(Cl)cc2[nH]1)C(=O)O | 249 to 250 |
| CC1(C)OC(=S)Nc2ccc(-c3ccc(F)cc3)cc21 | 221 to 223 |
| COC(=O)c1scc(-c2ccccc2)c1-c1ccc(SCOC(C)=O)c(F)c1 | 103 to 104 |

| SMILES | melting point [°C] |
| --- | --- |
| CCC12CCC(=O)C=C1CCC2=O (single isomer, unassigned; (+)) | 56 to 58.5 |
| CCCc1nc2c(N)nc3cc(OCCN4CCCCC4)ccc3c2s1 | 141 to 143 |
| COc1cc(COc2nn(-c3ccccc3)cc2/C=C/C=O)ccc1OCc1nc(-c2ccco2)oc1C | 134 to 135 |
| Cc1ccc(S(=O)(=O)N2N=C(c3ccccc3)CC3CCCC32)cc1 (centres undefined) | 171 to 176 |
| CC(=O)N1CCC2(CC1)C(=O)N(CC(=O)Nc1c(C(C)C)cccc1C(C)C)C(=O)N2c1ccc(C)cc1 | 136 to 138 |
| O=C(c1ccccc1)c1ccc(N2CCC(N3C(=O)OCc4ccccc43)CC2)c([N+](=O)[O-])c1 | 272 to 273 |
| N#Cc1cccc(C2=Nc3cc(O)c(-c4ccccc4F)cc3NC(=O)C2)c1 | > 250 |
| O=C1NC(=O)C(Cc2ccccc2)S1 (centres undefined) | 83 to 86 |
| Cc1nc(SCc2cc(O)nc(O)n2)sc1CC(=O)O | 246 to 247 |
| CC(=O)OC1CSC(Oc2cccc(-c3ccc(Cl)nc3)c2)C(OC(C)=O)C1OC(C)=O (centres undefined) | 129 |
| COc1ccc(-c2ccc(-c3ccc(C)cc3)s2)s1 | 108 to 111 |
| Cc1ccc(N(c2ccc(-c3ccc(-c4ccc(N(c5ccc(C)cc5)c5ccc6c(c5)CCC6)cc4)cc3)cc2)c2ccc3c(c2)CCC3)cc1 | 207 to 208 |
| COC(=O)c1csc(-c2snnc2-c2ccccc2)n1 | 124 |
| COc1cc2cc(C(=O)O)c(C(=O)O)nc2cc1OC | 264 to 266 |
| Cc1cc(F)ccc1-c1nc(NCCO)nc2c1ccc(=O)n2-c1ccccc1F | 120 to 124 |
| Cc1nc(C)c(-c2cccc(OC3SCC(O)C(O)C3O)c2)s1 (centres undefined) | 158 to 164 |
| O=C(O)Cn1c(=O)n(CCCCN2CCC(OC(c3ccccc3)c3ccccc3)CC2)c(=O)c2ccccc21 | 153 to 155 |
| COc1ccc(-c2ccco2)c2c1c(CCN(C)C)cn2C | 90 to 93 |
| Cc1c(-c2cc(F)ccc2F)[nH]c(N)c1C#N | 146 to 147 |
| CC(C)Cn1c(=O)n(C)c(=O)c2c(C#CCCCO)n(Cc3cccc4ccccc34)cc21 | 176 to 177 |
| CC#CNC(=C[N+](=O)[O-])NCCSCc1ccccn1 | 147 to 148 |
| Cc1c(C)c2c(c(Cl)c1C=O)OCC2 | 129 |
| c1ccc(C(OC2CCN(CCCNc3ccc4nncn4n3)CC2)c2ccccc2)cc1 | 167 to 168 |

| SMILES | melting point [°C] |
| --- | --- |
| CCNC(C)CN1CCc2c(c(=O)oc3c(OC)c(OC)ccc23)C1 (centres undefined) | 125 to 127 |
| CCN(CC)S(=O)(=O)Oc1ccc2c(c1)CCC1C2CCC2(C)C(O)C(O)CC12 (centres undefined) | 121 to 124 |
| O=C(O)c1cncn1C(C1CCCCC1)C1CCCCC1 | 253 |
| CC(=O)c1c(C)c(NC=O)c(C)c2c1OCC2c1ccc(C(C)C)cc1 (centres undefined) | 177 to 179 |
| NS(=O)(=O)c1ccccc1C1=CCCC1 | 112 to 113 |
| O=Cc1cc(-c2ncco2)ccc1Br | 100 to 104 |
| Cc1cc(=O)c(Oc2ccccc2C)c(-c2ccc(S(C)(=O)=O)cc2)o1 | 168 |
| COC(=O)c1cc(NC2CCCCC2)c2cc(Cc3ccc(F)cc3)cnc2c1O | 75.5 to 77.5 |
| OC(CNc1ccnc2cc(Cl)ccc12)c1ccccc1 (centres undefined) | 221 to 222 |
| O=S(=O)(Nc1ncncc1-c1ccc(Cl)cc1)c1ccc(O)cc1 | 231 to 232 |
| CN1C(=O)C(c2cccc(-c3cncnc3)c2)(c2cc(C#N)n(C)c2)N=C1N (centres undefined) | 214 to 225 |
| C1COCCOCCOCCNCCOCCOCCOCCN1 | 15 |
| CC=CC1=NC(=Cc2cccs2)C(=O)O1 | 174 to 176 |
| COCCN1CCc2sc(Nc3ncc(F)c(C)n3)nc2-c2c[nH]nc21 | 261 to 263 |
| COCC12CCC(=O)CC1CCC1C3CCC(=O)C3(C)CCC12 (centres undefined) | 94 to 96 |
| CC(C)[C@@H](C(=O)NCCCC(c1ccc(F)cc1)c1ccc(F)cc1)N(C)C1CCCCC1 | 82 to 86 |
| COC(=O)CC1=C(C)C(O)c2ccc(C#N)cc21 (centres undefined) | 70 to 75 |
| C#CCNC(=O)C(C)(COc1ccc(OCC)cc1)NS(=O)(=O)Cc1ccccc1 (centres undefined) | 155 to 156 |
| COC(=O)N(CO)c1ccc(OCc2nc3ccccc3s2)cc1C | 121 to 123 |
| CC(C)(C)C(Cl)=NNc1cc(Cl)ccc1Cl | 50 to 51 |
| COc1ccc(-n2cnc3c(OC)nc4ccccc4c32)cc1 | 180 to 182 |

Continued, values first:

| melting point [°C] | SMILES |
| --- | --- |
| 196 to 198 | CC(C)C(S)C(=O)NC1(C(=O)NC(Cc2ccc(-c3ccc(F)cc3)cc2)C(=O)O)CCCC1 (centres undefined) |
| 159 to 160 | CCNC(=O)Oc1ccc(-c2nn(C3CCCC3)c3c(F)cccc23)cc1 |
| 189 | COC(=O)c1cc(-c2c(OC)cccc2OC)n(-c2cc(C(=O)O)ccc2C)n1 |
| 178 to 179 | NS(=O)(=O)c1ccc(OCCOc2ccc(C(=O)C(=O)O)cc2)cc1 |
| 174 to 176 | OC1CCCc2nc3ccccc3c(NCc3ccc(C(F)(F)F)cc3)c21 (centres undefined) |
| 232 to 234 | O=C(c1cccc([N+](=O)[O-])c1)n1nc(O)c2ccccc21 |
| 237 to 240 | Nc1nc(-c2cc(Cl)ccc2Cl)nc(N2CCCCC2C(=O)O)n1 (centres undefined) |
| 147 to 149 | O=C1CCCc2nc3ccccc3c(NCc3cccc(C(F)(F)F)c3)c21 |
| 203 to 205 | COc1cc(OC)nc(NC(=O)NS(=O)(=O)c2ccccc2S(=O)(=O)OCC(F)(F)F)n1 |
| 176 to 177 | O=C(O)c1ccc(OCc2cccc(Cl)c2)cn1 |
| 107 to 109 | O=C(Nc1ccccc1-c1nnn[nH]1)C(=O)N1CCC(Cc2ccc(F)cc2)CC1 |
| 225 | CC(=O)Nc1cccc(OCc2cc([N+](=O)[O-])ccc2C(=O)O)c1 |
| 131 to 133 | O=C(C=Cc1ccccc1C(F)(F)F)C=Cc1ccccc1C(F)(F)F |
| 192 to 193 | O=C(NCc1ccc(Br)cc1F)c1ccc(Br)cc1[N+](=O)[O-] |
| 257 to 258 | CNc1nccc(Oc2ccc(NC(=O)Nc3ccc(CN4CCN(C(C)(C)C)CC4)c(C(F)(F)F)c3)cc2)n1 |
| 123 to 124 | Cc1cccc2cc(CN(Cc3cc(C(F)(F)F)cc(C(F)(F)F)c3)c3ncc(N4CCOCC4)cn3)c(N(CC3CC3)CC3CC3)nc12 |

| melting point [°C] | SMILES |
| --- | --- |
| 124 to 125 | CC(=O)NC1(c2ccc(C(C)N3CCN(c4ncccn4)CC3)cc2)CC1 (centres undefined) |
| 211 | Cn1nc(Sc2cc(C(F)(F)F)ccc2C(=O)O)n(C)c1=O |
| 140 to 141 | COc1ccc(C2=NN(c3ccc(Cl)cc3)C(=O)[C@H]3CC=CC[C@@H]23)cc1OC (relative stereo) |
| 122 to 127 | COC(=O)CCc1cc2cc(C(C)=O)ccc2n1S(=O)(=O)c1ccccc1 |
| 230 to 232 | Cc1c(F)c(N2CCC(N)C2)c(F)c2c1c(=O)c(C(=O)O)cn2-c1ccc(F)cc1F (centres undefined) |
| 246 to 249 | CCOC(=O)c1cnn(C)c1C(=O)Nc1ccn2nc(-c3cccc(F)c3)nc2c1 |
| 133 to 134 | O=C(Nc1nc(C(F)(F)C(F)(F)F)c(CF)s1)c1cc(C(F)(F)F)cc(C(F)(F)F)c1 |
| > 300 | Nc1c(F)c(F)cc2c1c(=O)c(C(=O)O)cn2C1COC1 |
| 120 to 122 | CC(C)NC(=O)N1CCc2cc(S(=O)(=O)N3CC(c4ccccc4)NC3=O)ccc21 (centres undefined) |
| 228 to 230 | O=C(NC1=NN(c2ccc(C(=O)C(F)(F)F)cc2)CC1)C(F)(F)F |
| 232 | O=C(Nc1ncc(C(F)(F)F)o1)C1c2cc(F)ccc2Oc2ccc(F)cc21 |
| 128 | CC(=O)ON=C(N)c1cccc(OC(C)=O)c1 |
| 78.5 to 79 | CCCCCCCCCCCCNC(=O)COc1ccc(/C=C/C(=O)C(F)(F)F)cc1 |
| 217 to 220 | CC(=O)Nc1ccc(C(=O)O)c([N+](=O)[O-])c1 |
| 163 | CCCc1cc(C(=O)O)ccc1OCc1ccccc1 |
| 65 to 68 | CC(=O)NCC1CN(c2ccc(N3CCC(O)(C#N)C(C)(C)C3)c(F)c2)C(=O)O1 (centres undefined) |
